Assay results reported in patent US20210038579A1, “Treatment Of Patients With Classic Fabry Disease” (Amicus Therapeutics, Inc., priority 2018, published 2021).
Numbering of substitutions follows the chain as printed.

Legend:
Assay in all cases: HEK assay: α-Gal A activity in HEK-293 cell lysate with migalastat
Assay type in all cases: cell-based
[1] = target: T1, α-Gal A mutant form p.Pro205Thr (c.613 C > A) (Homo sapiens, UniProt P06280, P205T)
T1 construct: expressed in transfected cells; host or cells: HEK-293
T1 sequence (P06280 32-429 P205T): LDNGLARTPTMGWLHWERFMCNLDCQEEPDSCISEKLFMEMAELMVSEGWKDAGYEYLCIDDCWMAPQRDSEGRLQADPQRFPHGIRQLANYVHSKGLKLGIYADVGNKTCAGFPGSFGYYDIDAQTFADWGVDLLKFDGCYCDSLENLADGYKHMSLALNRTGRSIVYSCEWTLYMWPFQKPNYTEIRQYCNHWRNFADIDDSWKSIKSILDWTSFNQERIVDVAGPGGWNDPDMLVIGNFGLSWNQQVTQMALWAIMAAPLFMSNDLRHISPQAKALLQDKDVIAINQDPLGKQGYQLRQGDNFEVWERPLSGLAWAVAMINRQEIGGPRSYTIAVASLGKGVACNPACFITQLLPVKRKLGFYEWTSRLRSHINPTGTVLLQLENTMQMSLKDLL
Description: (§1) Such mutations are also referred to herein as “HEK assay amenable” mutations.
(§2) In this assay, cDNA constructs are created. The corresponding α-Gal A mutant forms are transiently expressed in HEK-293 cells. Cells are then incubated±migalastat (17 nM to 1 mM) for 4 to 5 days. After, α-Gal A levels are measured in cell lysates using a synthetic fluorogenic substrate (4-MU-α-Gal) or by western blot. This has been done for known disease-causing missense or small in-frame insertion/deletion mutations.

[2] = target: T2, α-Gal A mutant form p.Gly325Arg (c.973G > C) (Homo sapiens, UniProt P06280, G325R)
T2 construct: expressed in transfected cells; host or cells: HEK-293
T2 sequence (P06280 32-429 G325R): T1 sequence (P06280 32-429 P205T) with T174P, G294R
Description: as §1, §2

[3] = target: T3, α-Gal A mutant form p.Tyr216Cys (c.647 A > G) (Homo sapiens, UniProt P06280, Y216C)
T3 construct: expressed in transfected cells; host or cells: HEK-293
T3 sequence (P06280 32-429 Y216C): T1 sequence (P06280 32-429 P205T) with T174P, Y185C
Description: as §1, §2

[4] = target: T4, α-Gal A mutant form p.Asp33Gly (c.98 A > G) (Homo sapiens, UniProt P06280, D33G)
T4 construct: expressed in transfected cells; host or cells: HEK-293
T4 sequence (P06280 32-429 D33G): T1 sequence (P06280 32-429 P205T) with D2G, T174P
Description: as §1, §2

[5] = target: T5, α-Gal A mutant form p.Ile317Thr (c.950 T > C) (Homo sapiens, UniProt P06280, I317T)
T5 construct: expressed in transfected cells; host or cells: HEK-293
T5 sequence (P06280 32-429 I317T): T1 sequence (P06280 32-429 P205T) with T174P, I286T
Description: as §1, §2

[6] = +10 μM migalastat, HEK-293 cell lysate, mean ± SEM, n = 20
[7] = HEK293, 10 μM migalastat minus baseline, read-out: Absolute increase at 10 μM (% WT)

OC[C@H]1NC[C@H](O)[C@@H](O)[C@H]1O [migalastat]
α-Gal A activity at 10 μM (fold over baseline) ([1]; 10 μM migalastat): 3.41 fold over baseline
+Migalastat α-Gal A activity [1, 6]: 16371 ± 647 nmol/mg/h
+Migalastat α-Gal A activity % WT [1, 6]: 48.8 ± 2.2 % WT
activation at 10 µM [1, 7]: 34.4%
α-Gal A activity at 10 μM (fold over baseline) ([2]; 10 μM migalastat): 10.17 fold over baseline
+Migalastat α-Gal A activity [2, 6]: 9244 ± 417 nmol/mg/h
+Migalastat α-Gal A activity % WT [2, 6]: 26.6 ± 1.4 % WT
activation at 10 µM [2, 7]: 24%
α-Gal A activity at 10 μM (fold over baseline) ([3]; 10 μM migalastat): 10.40 fold over baseline
+Migalastat α-Gal A activity [3, 6]: 7003 ± 305 nmol/mg/h
+Migalastat α-Gal A activity % WT [3, 6]: 20.7 ± 0.8 % WT
activation at 10 µM [3, 7]: 18.7%
α-Gal A activity at 10 μM (fold over baseline) ([4]; 10 μM migalastat): 2.42 fold over baseline
+Migalastat α-Gal A activity [4, 6]: 24033 ± 865 nmol/mg/h
+Migalastat α-Gal A activity % WT [4, 6]: 70.6 ± 2.4 % WT
activation at 10 µM [4, 7]: 41.3%
α-Gal A activity at 10 μM (fold over baseline) ([5]; 10 μM migalastat): 3.40 fold over baseline
+Migalastat α-Gal A activity [5, 6]: 7812 ± 530 nmol/mg/h
+Migalastat α-Gal A activity % WT [5, 6]: 23.6 ± 1.0 % WT
activation at 10 µM [5, 7]: 17%
